# Data from US20180326102A1, “SYSTEMS, METHODS, AND COMPOSITIONS FOR IMAGING ANDROGEN RECEPTOR AXIS ACTIVITY IN CARCINOMA, AND RELATED THERAPEUTIC COMPOSITIONS AND METHODS” (Memorial Sloan Kettering Cancer Center, priority 2015, published 2018).
# Square brackets hold non-standard residues; d marks the D form. Peptide text beside a SMILES is read from it. * marks the point of attachment. dPhe(4-NHCONH2) = NC(=O)Nc1ccc(C[C@@H](N)C(=O)O)cc1; Dihydroorotyl(S) = O=C1C[C@@H](C(=O)*)NC(=O)N1; dPhe(4-Cl) = N[C@H](Cc1ccc(Cl)cc1)C(=O)O; Phe(4-NH2) = Nc1ccc(C[C@H](N)C(=O)O)cc1; d2Nal = N[C@H](Cc1ccc2ccccc2c1)C(=O)O; Lys(iPr) = CC(C)NCCCC[C@H](N)C(=O)O; d3Pal = N[C@H](Cc1cccnc1)C(=O)O
# Assays:
# Pb_KLK2×Hi-Myc mice = format: in vivo
# Protocol: A final clinical simulation involved non-invasive imaging of the impact of different degrees of inhibition on AR activity in the tumor (intratumoral) and prostate itself (intraprostatic). Progression of disease was initially monitored in 14 Pb_KLK2 XHi-Myc mice using ^89Zr-11B6 PET. Thereafter, mice were randomized into 3 treatment groups: vehicle (n=4), castration (n=6), or castration plus Enzalutamide (n=4).
# PET imaging experiments were conducted on a micro-PET Focus 120 scanner (Concorde Microsystems). In initial studies, mice (n=4) were administered formulations of ^89Zr-11B6 [3.7-5.55 MBq (100-150 μCi), 300, 100, 50, or 25 μg of protein, in 150 μL sterile saline for injection] through i.v. Tail-vein injection. Approximately 5 minutes before recording PET images, mice were anesthetized by inhalation of 1% to 2% isoflurane (Baxter Healthcare)/oxygen gas mixture and placed on the scanner bed. PET images were recorded at various time points between 1 and 344 hours post-injection. […] For all static images, scan time was adjusted to ensure between 15-25 million coincident events were recorded.
# Site-directed mutagenesis of APLILSR to APLRTKR at positions […], -3, and -2 the zymogen sequence of KLK2 was performed using a Quick Change Lightning Mutagenesis Kit (Stratagene). […] Mice were monitored closely in accordance with IACUC-established guidelines and RARC animal protocol (#04-01-002).
# VCaP = experiment: 18F-FDHT imaging in VCaP bearing mouse; format: in vivo; details: 1.5 h after administration
# Protocol: The distribution at 1.5 h after administration in a representative VCaP (arrow) bearing mouse. ^18F-FDHT is a radiolabeled analog of the non-aromatizable dihydrotestosterone.
smiles,measurement,setting,value
CC(=O)N[C@H](Cc1ccc2ccccc2c1)C(=O)N[C@H](Cc1ccc(Cl)cc1)C(=O)N[C@H](Cc1cccnc1)C(=O)N[C@@H](CO)C(=O)N[C@@H](Cc1ccc(NC(=O)[C@@H]2CC(=O)NC(=O)N2)cc1)C(=O)N[C@H](Cc1ccc(NC(N)=O)cc1)C(=O)N[C@@H](CC(C)C)C(=O)N[C@@H](CCCCNC(C)C)C(=O)N1CCC[C@H]1C(=O)N[C@H](C)C(N)=O [Degarelix] (Ac-[d2Nal][dPhe(4-Cl)][d3Pal]S[Phe(4-NH2)](Dihydroorotyl(S))[dPhe(4-NHCONH2)]L[Lys(iPr)]P[dA]-NH2),^89Zr-11B6 uptake (AR pathway readout) during GnRH antagonist therapy,"Pb_KLK2×Hi-Myc mice; depot injections, androgen ablation for 2 months",decreased following castration but reemerged at the end of the treatment period
CC12CCC(=O)CC1CCC1C2CCC2(C)C(O)C([18F])CC12 (stereo not drawn) [^18F-FDHT],"Liver, bile and kidney uptake relative to tumor uptake",VCaP,equivalent to or exceeds tumor uptake
CNC(=O)c1ccc(N2C(=S)N(c3ccc(C#N)c(C(F)(F)F)c3)C(=O)C2(C)C)cc1F [Enzalutamide],reactivation of ^89Zr-11B6 uptake (AR activity) after castration plus adjuvant androgen receptor blockade,"Pb_KLK2×Hi-Myc mice; castration plus Enzalutamide, n=4",not significant
